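All cell lines were grown in 96-well plates and treated with compound for 48 hours. Abbreviation: GI50, concentration required for 50% inhibition of growth.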 Active and inactive are the calls of the source. Cut-off read from the data, not from the text of the source: active = GI50 up to about 1.1 µM and inactive = higher.
Columns and labels:
Assay in all cases: inhibition of tumour cell growth, NCI panel, 48 h
A549 = tested on: A549
HCT-116 = tested on: HCT-116
HCT-15 = tested on: HCT-15
HL-60 = tested on: HL-60
HT-29 = tested on: HT-29
KM12 = tested on: KM12
M14 = tested on: M14
MCF7 = tested on: MCF7
MDA-N = tested on: MDA-N
OVCAR-3 = tested on: OVCAR-3
OVCAR-4 = tested on: OVCAR-4
SF-268 = tested on: SF-268
SK-MEL-5 = tested on: SK-MEL-5
SNB-75 = tested on: SNB-75
TK-10 = tested on: TK-10
U-251 = tested on: U-251
UACC-257 = tested on: UACC-257
NCI-H226 = tested on: NCI-H226
RXF 393 = tested on: RXF 393

Compound | GI50 (A549) | GI50 (HCT-116) | GI50 (HCT-15) [µM] | GI50 (HL-60) | GI50 (HT-29) | GI50 (KM12) | GI50 (M14) | GI50 (MCF7) | GI50 (MDA-N) | GI50 (OVCAR-3) | GI50 (OVCAR-4) | GI50 (SF-268) | GI50 (SK-MEL-5) | GI50 (SNB-75) | GI50 (TK-10) | GI50 (U-251) | GI50 (UACC-257) | GI50 (NCI-H226) | GI50 (RXF 393)
O=C(/C=C/c1ccc(Cl)c(Cl)c1)Oc1ccc(/C=C2\CCCCC2=O)cc1 | > 100 µM (inactive) | > 100 µM (inactive) | > 100 | 25.4 µM (inactive) | > 100 µM (inactive) | > 100 µM (inactive) | > 100 µM (inactive) | > 100 µM (inactive) | > 100 µM (inactive) | > 100 µM (inactive) | > 100 µM (inactive) | 39 µM (inactive) | > 100 µM (inactive) | > 100 µM (inactive) | > 100 µM (inactive) | > 100 µM (inactive) | > 100 µM (inactive) |  | 
CC(=O)ON(C(C)=O)c1ccc(-c2nc3ccccc3s2)cc1 | 26.3 µM (inactive) | 24.5 µM (inactive) | 24.4 |  | 24 µM (inactive) | 15.1 µM (inactive) | 26.4 µM (inactive) |  | 27.2 µM (inactive) | 22.1 µM (inactive) | 38.7 µM (inactive) | 24.7 µM (inactive) | 24.5 µM (inactive) | 24.5 µM (inactive) | 34.4 µM (inactive) | 24.2 µM (inactive) | 37 µM (inactive) | 0.276 µM (active) | 35.3 µM (inactive)
O=c1c2ccccc2oc2nc3n(c(=O)c12)CCCS3 | > 100 µM (inactive) | > 100 µM (inactive) | > 100 |  |  | > 100 µM (inactive) | > 100 µM (inactive) | > 100 µM (inactive) | > 100 µM (inactive) | > 100 µM (inactive) | > 100 µM (inactive) | > 100 µM (inactive) | > 100 µM (inactive) | 63.4 µM (inactive) | > 100 µM (inactive) | > 100 µM (inactive) | > 100 µM (inactive) | > 100 µM (inactive) | > 100 µM (inactive)
CC(C)N1CC2CC(CN(C(=O)c3ccccc3)C2)C1.[O-][Cl+3]([O-])([O-])O | > 100 µM (inactive) |  | > 100 | > 100 µM (inactive) | > 100 µM (inactive) | > 100 µM (inactive) | > 100 µM (inactive) |  |  | > 100 µM (inactive) | > 100 µM (inactive) | > 100 µM (inactive) | > 100 µM (inactive) | > 100 µM (inactive) | > 100 µM (inactive) | > 100 µM (inactive) | > 100 µM (inactive) | 72.9 µM (inactive) | > 100 µM (inactive)
CC(=O)N1N=C(c2ccccc2Nc2ccccc2C2=NN(C(C)=O)C(c3ccccc3)O2)OC1c1ccccc1 (centres undefined) | 17.4 µM (inactive) | 32.5 µM (inactive) | 44.8 |  | 25.5 µM (inactive) |  | 56.1 µM (inactive) | 11.5 µM (inactive) | 29 µM (inactive) | > 100 µM (inactive) | 29.8 µM (inactive) |  | 51.2 µM (inactive) |  | > 100 µM (inactive) | 63.5 µM (inactive) |  | > 100 µM (inactive) | 46.8 µM (inactive)
NC(CCC(=O)O)(CCC(=O)O)CCC(=O)O | > 100 µM (inactive) | > 100 µM (inactive) | > 100 |  | > 100 µM (inactive) | > 100 µM (inactive) | > 100 µM (inactive) | > 100 µM (inactive) | > 100 µM (inactive) |  |  | > 100 µM (inactive) | > 100 µM (inactive) | > 100 µM (inactive) | > 100 µM (inactive) | > 100 µM (inactive) | > 100 µM (inactive) | > 100 µM (inactive) | > 100 µM (inactive)
O=C(Nc1ccccc1)Oc1ccc(C(=S)Nc2ccc(Br)cc2)cc1 |  | 17.3 µM (inactive) | 16.2 | 8.13 µM (inactive) | 16.8 µM (inactive) | 12.8 µM (inactive) |  | 19.1 µM (inactive) | 18.9 µM (inactive) | 18.9 µM (inactive) | 14.3 µM (inactive) | 16.4 µM (inactive) | 16 µM (inactive) |  |  | 19.5 µM (inactive) | 20.5 µM (inactive) |  | 
CN(C)c1ccc(/C=N\NC(=O)c2ccccc2Nc2ccccc2C(=O)N/N=C/c2ccc(N(C)C)cc2)cc1 | > 100 µM (inactive) | > 100 µM (inactive) | > 100 |  | > 100 µM (inactive) | > 100 µM (inactive) | 31.7 µM (inactive) | > 100 µM (inactive) | > 100 µM (inactive) | > 100 µM (inactive) | > 100 µM (inactive) | > 100 µM (inactive) | 57 µM (inactive) | > 100 µM (inactive) | > 100 µM (inactive) | > 100 µM (inactive) | > 100 µM (inactive) | > 100 µM (inactive) | > 100 µM (inactive)
COc1ccc2cc(C(=O)NCCc3ccccc3)ccc2c1OC | > 100 µM (inactive) | 96.6 µM (inactive) | > 100 |  | 67.6 µM (inactive) |  | > 100 µM (inactive) | > 100 µM (inactive) | > 100 µM (inactive) | 46.1 µM (inactive) | > 100 µM (inactive) | 54.3 µM (inactive) | 97.3 µM (inactive) |  |  | 33 µM (inactive) | > 100 µM (inactive) | 63 µM (inactive) | 30.5 µM (inactive)
OC(c1ccc(F)cc1)C(F)(F)c1nc(-c2ccccc2)no1 (centres undefined) |  | 19.1 µM (inactive) | 23.9 | 22.5 µM (inactive) | 17.6 µM (inactive) |  | 17.9 µM (inactive) | 23.7 µM (inactive) | 23.8 µM (inactive) | 16.4 µM (inactive) | 20.7 µM (inactive) | 25.3 µM (inactive) |  |  | 38.3 µM (inactive) | 0.126 µM (active) | 19.6 µM (inactive) |  | 
COc1ccc2c(c1)CCN=C2Cc1ccccc1CCCl | 28.6 µM (inactive) | 11.9 µM (inactive) | 20.6 | 14.2 µM (inactive) | 12.2 µM (inactive) | 23.1 µM (inactive) | 19.1 µM (inactive) | 26 µM (inactive) |  | 33.9 µM (inactive) | 22 µM (inactive) | 21.8 µM (inactive) | 17.5 µM (inactive) | 31.3 µM (inactive) | 53.2 µM (inactive) | 33.1 µM (inactive) | 30.7 µM (inactive) | 26.2 µM (inactive) | 27.8 µM (inactive)
Cc1cc(C)c(-n2c(C)c(C)c(C#N)c2N)c(C)c1 | 36.5 µM (inactive) | 18.8 µM (inactive) | 27.9 | 15.1 µM (inactive) | 30.5 µM (inactive) | 36.1 µM (inactive) | 27.5 µM (inactive) |  | 19.2 µM (inactive) | 24.2 µM (inactive) | 29 µM (inactive) | 38.6 µM (inactive) | 14.9 µM (inactive) | 31.9 µM (inactive) | 32.4 µM (inactive) | 17.4 µM (inactive) | 18.1 µM (inactive) | 25 µM (inactive) | 22.1 µM (inactive)
Oc1ccc2c(c1)-c1c(c3cc(O)ccc3n1CCN1CCOCC1)CC2 | 28.4 µM (inactive) | 19.1 µM (inactive) | 19.2 | 23.2 µM (inactive) | 26 µM (inactive) | 32.7 µM (inactive) | 19.5 µM (inactive) | 18.7 µM (inactive) |  | 20.7 µM (inactive) | 25.4 µM (inactive) | 44.8 µM (inactive) | 16.6 µM (inactive) | 19.5 µM (inactive) | 41.1 µM (inactive) | 19.7 µM (inactive) | 36.6 µM (inactive) | 18.5 µM (inactive) | 19.7 µM (inactive)
COC(=O)C1=Nc2c(C)nn(-c3ccccc3)c2N=C(c2ccc([N+](=O)[O-])cc2)C1 | > 10 µM (inactive) | > 10 µM (inactive) | > 10 | > 10 µM (inactive) | > 10 µM (inactive) | > 10 µM (inactive) | > 10 µM (inactive) | > 10 µM (inactive) | > 10 µM (inactive) | > 10 µM (inactive) | > 10 µM (inactive) | > 10 µM (inactive) | > 10 µM (inactive) | > 10 µM (inactive) | > 10 µM (inactive) | > 10 µM (inactive) | > 10 µM (inactive) |  | 
Cc1cc(S(=O)(=O)O)ccc1/N=N/c1ccc(/N=N/c2c(O)ccc3ccccc23)c(C)c1 | 50.4 µM (inactive) | 34.2 µM (inactive) | 32.1 |  | 70.3 µM (inactive) | 31.6 µM (inactive) | > 100 µM (inactive) |  | 50.1 µM (inactive) | 39.4 µM (inactive) | 51.2 µM (inactive) | 55.3 µM (inactive) | > 100 µM (inactive) | 41.6 µM (inactive) | 74 µM (inactive) | 36.4 µM (inactive) | > 100 µM (inactive) | 85.3 µM (inactive) | > 100 µM (inactive)
C=C(C)C(=O)O[C@H]1CC2(CO)O[C@@H]2CC/C(COC(C)=O)=C/C2OC(=O)C(=C)[C@@H]21 (some centres undefined) | > 100 µM (inactive) | 18.2 µM (inactive) | 26.2 | 8.67 µM (inactive) | 34.8 µM (inactive) | > 85.3 µM (inactive) | 21 µM (inactive) | 11.4 µM (inactive) |  | 30.2 µM (inactive) | 39.6 µM (inactive) | > 100 µM (inactive) | 28.3 µM (inactive) | 59.7 µM (inactive) | 25.4 µM (inactive) | > 100 µM (inactive) | 20 µM (inactive) | > 46.1 µM (inactive) | 12.1 µM (inactive)
Clc1ccccc1C(c1ccccc1)(c1ccccc1)n1ccnc1 [CLOTRIMAZOLE] | 8.2 µM (inactive) | 7.82 µM (inactive) | 8.67 |  | 9.25 µM (inactive) | 11.7 µM (inactive) | 13.5 µM (inactive) | 7.33 µM (inactive) | 11.9 µM (inactive) | 5.66 µM (inactive) | 9.82 µM (inactive) | 16.5 µM (inactive) | 7.78 µM (inactive) | 16.5 µM (inactive) | 15.3 µM (inactive) | 14.8 µM (inactive) | 10.8 µM (inactive) |  | 17.4 µM (inactive)

— ChEMBL document CHEMBL1201862, “PubChem BioAssay data set” (2004)
